These are literature values, as cited in patent publication US7598279B2, “Neurotherapeutic azole compounds” (SK Holdings Co., Ltd., priority 2005, dated 2009).

SMILES strings stand for the structures.

One data set has as its system mice and rats. Particulars: cited from earlier work.
The subject of another data set is clonic seizures. Conditions: in vivo; cited from earlier work.
A further data set concerns mice. Conditions: probably by inhibition of cytochrome P-450; cited from earlier work.

For the molecule `O=C(Cn1ccnc1)c1ccc2ccccc2c1` [Nafimidone, 2-(1H-imidazole-1-yl)-1-(2-naphthalenyl)ethanone], the “protection against maximal electroshock- or pentylenetetrazole-induced tonic seizures” value in the data set with mice and rats is “protect”. Besides, in the data set with clonic seizures, the “antagonism of clonic seizures induced by pentylenetetrazole, strychnine, bicuculline, or picrotoxin” value is listed as “do not antagonize”. The hexobarbital-induced sleeping time entry in the data set on mice is recorded as “potentiated”.
For the molecule `OC(Cn1ccnc1)c1ccc(CCc2ccccc2)cc1` (stereo not drawn) [denzimol, α-(4-(2-phenylethyl)phenyl)-1H-imidazole-1-ethanol], in the data set on mice and rats, the “protection against maximal electroshock- or pentylenetetrazole-induced tonic seizures” value is on record as “protect”. In addition, the “antagonism of clonic seizures induced by pentylenetetrazole, strychnine, bicuculline, or picrotoxin” value with clonic seizures is reported as “do not antagonize”. In addition, the hexobarbital-induced sleeping time entry in the data set on mice was “potentiated”.
